Measured values from patent US10683321B2, “4′-or nucleosides for the treatment of HCV” (IDENIX PHARMACEUTICALS LLC, priority 2013, dated 2020).

Experiments:
[1] = system: HCV genotype 1b replicon in Huh-7-derived cell line (Zluc); test: HCV Replicon Assay (luciferase reporter); assay type: cell-based; settings: Hepatitis C virus; Zluc cells, 72 hours of incubation, luciferase readout
Method: Huh-7-derived cell line (Zluc) that harbors an HCV genotype 1b replicon and a luciferase reporter gene was grown in Dulbecco's Modified Eagle Medium (DMEM) supplemented with 10% fetal bovine serum, 2 mM GlutaMAX, 1% MEM nonessential amino acids, 100 IU/mL penicillin, 100 μg/mL streptomycin, and 0.5 mg/mL Geneticin® (G418). For dose response testing the cells were seeded in 96-well plates at 7.5×10^3 cells per well in a volume of 50 μL, and incubated at 37° C./5% CO2. Drug solutions were made up freshly in Huh-7 media as 2× stocks. Ten additional 5-fold dilutions were prepared from these stocks in DMEM without G418. At least three hours after Zluc cells were seeded, drug treatment was initiated by adding 50 μL of drug dilutions to the plates in duplicate. Final concentrations of drug ranged from 100 μM to 0.0000512 μM. Cells were then incubated at 37° C./5% CO2. Alternatively, compounds were tested at two concentrations (1 μM and 10 μM). […] After 72 hours of incubation, the inhibition of HCV replication was measured by quantification of photons emitted after mono-oxygenation of 5′-fluoroluciferin to oxyfluoroluciferin by firefly luciferase. For this, media was removed from the plates via gentle tapping. Fifty microliters of ONE-glo luciferase assay reagent was added to each well. The plates were shaken gently for 3 min at room temperature and luminescence was measured on a Victor^3 V 1420 multilabel counter (Perkin Elmer) with a 1 second read time using a 700 nm cut-off filter. The EC50 values were calculated from dose response curves from the resulting best-fit equations determined by Microsoft Excel and XLfit 4.1 software. When screening at two fixed concentrations, the results were expressed as % inhibition at 1 μM and 10 μM.

[2] = Cytotoxicity evaluation, CellTiter-Blue Cell Viability Assay; assay type: cell-based; settings: human, Zluc cells (HCV replicon)
Method: For cytotoxicity evaluation, Zluc cells were treated with compound as described herein, and cell viability was monitored using the CellTiter-Blue Cell Viability Assay (Promega) by adding 20 μL of the assay solution to each well. The plates were then incubated at 37° C./5% CO2 for at least 3 hours. Fluorescence was detected in plates using excitation and emission wavelengths of 560 and 590 nm, respectively, in a Victor^3 V 1420 multilabel counter (Perkin Elmer) and CC50 values were determined using Microsoft Excel and XLfit 4.1 software.

[3] = molecular target: T1, wild-type HCV genotype 1b NS5B protein (recombinant HCV polymerase) (Hepatitis C virus genotype 1b, UniProt Q9WMX2); test: HCV Polymerase Enzyme Assay, wild-type; assay type: biochemical
T1 construct: HCV genotype 1b NS5B protein were used to generate recombinant HCV polymerases (with a deletion of the 21 carboxy terminal amino acids); made in house
Source text: (§1) Test compounds in the form of nucleoside triphosphates were examined for inhibitory activity against purified HCV polymerase in a standard assay. Bacterial expression constructs encoding the approximately 65 kDa HCV genotype 1b NS5B protein were used to generate recombinant HCV polymerases (with a deletion of the 21 carboxy terminal amino acids). Both the wild-type genotype 1b protein and protein containing the S282T mutation were expressed and purified for use in the enzymatic activity assay.
(§2) The enzymatic activity assay measured the inhibitory effect of increasing concentrations of test compound on the incorporation of α-[^33P]-labeled nucleotide into trichloroacetic acid-precipitable material. Recombinant polymerase and synthetic RNA template were combined in reaction buffer containing ribonucleoside triphosphates, α-[^33P]-labeled nucleotide and eight concentrations of test compound in three-fold dilutions. Reactions were incubated for two hours at 30° C.
(§3) Reactions were terminated by the addition of ice-cold trichloroacetic acid and sodium pyrophosphate to promote precipitation of newly-synthesized ribonucleic acid. Precipitable material from the reactions was collected by filtration onto 96-well filter plates, washed extensively with water, and quantified by liquid scintillation.
(§4) The inhibitory activity of test compounds was determined by fitting results to dose-response curves using XLfit software.

[4] = molecular target: T2, HCV genotype 1b NS5B protein containing the S282T mutation (Hepatitis C virus genotype 1b, UniProt Q9WMX2, S2701T); test: HCV Polymerase Enzyme Assay, S282T mutant; assay type: biochemical
T2 construct: HCV genotype 1b NS5B protein were used to generate recombinant HCV polymerases (with a deletion of the 21 carboxy terminal amino acids); made in house
Source text: as §1, §2, §3, §4

CO[C@]1(COP(=O)(N[C@H](C)C(=O)OC(C)C)Oc2ccccc2)O[C@@H](n2ccc(N)nc2=O)[C@H](O)[C@@H]1O (stereo partly drawn) [Compound 13a]
EC50 [1]: > 10 µM
CC50 at 72 h [2]: > 50 µM

CO[C@]1(COP(=O)(O)OP(=O)(O)O)O[C@@H](n2ccc(=O)[nH]c2=O)[C@H](O)[C@@H]1O [Compound 17a]
IC50 [3]: > 10000 nM

CO[C@]1(CO)O[C@@H](n2ccc(=O)[nH]c2=O)[C@H](N=[N+]=[N-])[C@@H]1O [Compound 23]
EC50 [1]: > 10 µM
CC50 at 72 h [2]: > 50 µM

C#CCO[C@]1(CO)O[C@@H](n2ccc(=O)[nH]c2=O)[C@H](O)[C@@H]1O [Compound 8a]
EC50 [1]: > 10 µM
CC50 at 72 h [2]: > 50 µM

CO[C@]1(COP(=O)(O)OP(=O)(O)OP(=O)(O)O)O[C@@H](n2ccc(=O)[nH]c2=O)[C@H](F)[C@@H]1O [Compound 9b]
IC50 [3]: 1000 to 10000 nM

CO[C@]1(CO)O[C@@H](n2ccc(=O)[nH]c2=O)[C@H](O)[C@@H]1N=[N+]=[N-] [Compound 2e]
EC50 [1]: > 10 µM
CC50 at 72 h [2]: > 50 µM

CO[C@]1(COP(=O)(O)OP(=O)(O)OP(=O)(O)O)O[C@@H](n2ccc(=O)[nH]c2=O)[C@H](N)[C@@H]1O [Compound 233]
IC50 [3]: 1000 to 10000 nM

CO[C@]1(CO)O[C@@H](n2ccc(N)nc2=O)[C@H](O)[C@@H]1F [Compound 5c]
EC50 [1]: > 10 µM
CC50 at 72 h [2]: > 50 µM

CO[C@@]1(CO)C[C@@H](O)[C@H](n2ccc(=O)[nH]c2=O)O1 [Compound 2d]
EC50 [1]: > 10 µM
CC50 at 72 h [2]: > 50 µM

CO[C@]1(CO)O[C@@H](n2ccc(=O)[nH]c2=O)[C@H](F)[C@@H]1O [Compound 2b]
EC50 [1]: > 10 µM
CC50 at 72 h [2]: > 50 µM

CO[C@]1(COP(=O)(N[C@@H](C)C(=O)OC(C)C)OCCSC(=O)C(C)(C)C)O[C@@H](n2ccc(N)nc2=O)[C@H](O)[C@@H]1O (single isomer, unassigned) [Compound 16a]
EC50 [1]: > 10 µM
CC50 at 72 h [2]: > 50 µM

CO[C@]1(COP(=O)(N[C@@H](C)C(=O)OC(C)C)OCCSC(=O)C(C)(C)C)O[C@@H](n2ccc(=O)[nH]c2=O)[C@H](O)[C@@H]1O (stereo partly drawn) [Compound 14a]
EC50 [1]: > 10 µM
CC50 at 72 h [2]: > 50 µM

CO[C@]1(COP(=O)(O)OP(=O)(O)OP(=O)(O)O)O[C@@H](n2cnc3c(=O)[nH]c(N)nc32)[C@@H](N)[C@@H]1O [Compound 230]
IC50 [3]: 1000 to 10000 nM

CO[C@]1(CO)O[C@@H](n2ccc(=O)[nH]c2=O)[C@H](O)[C@@H]1F [Compound 2c]
EC50 [1]: > 10 µM
CC50 at 72 h [2]: > 50 µM

CO[C@]1(COP(=O)(O)OP(=O)(O)OP(=O)(O)O)O[C@@H](n2ccc(=O)[nH]c2=O)[C@H](O)[C@@H]1N [Compound 9e]
IC50 [3]: > 10000 nM

CO[C@]1(COP(=O)(O)OP(=O)(O)OP(=O)(O)O)O[C@@H](n2ccc(=O)[nH]c2=O)[C@H](O)[C@@H]1F [Compound 9c]
IC50 [3]: 250 to 1000 nM

CC(C)O[C@]1(CO)O[C@@H](n2ccc(=O)[nH]c2=O)[C@H](O)[C@@H]1O [Compound 7a]
EC50 [1]: > 10 µM
CC50 at 72 h [2]: > 50 µM

CO[C@]1(COP(=O)(O)OP(=O)(O)OP(=O)(O)O)O[C@@H](n2cnc3c(=O)[nH]c(N)nc32)[C@H](F)[C@@H]1O [Compound 222]
IC50 [3]: < 250 nM
IC50 [4]: 250 to 1000 nM

CO[C@]1(CO)O[C@@H](n2cnc3c(=O)[nH]c(N)nc32)[C@H](N=[N+]=[N-])[C@@H]1O [Compound 21]
EC50 [1]: > 10 µM
CC50 at 72 h [2]: > 50 µM

CO[C@]1(COP(=O)(O)OP(=O)(O)OP(=O)(O)O)O[C@@H](n2ccc(=O)[nH]c2=O)[C@H](O)[C@@H]1O [Compound 9a]
IC50 [3]: 250 to 1000 nM
IC50 [4]: 250 to 1000 nM

CC(C)O[C@]1(CO)O[C@@H](n2ccc(=O)[nH]c2=O)[C@H](F)[C@@H]1O [Compound 7b]
EC50 [1]: > 10 µM
CC50 at 72 h [2]: > 50 µM

CO[C@]1(COP(=O)(O)OP(=O)(O)OP(=O)(O)O)O[C@@H](n2ccc(N)nc2=O)[C@H](O)[C@@H]1F [Compound 9g]
IC50 [3]: 250 to 1000 nM
IC50 [4]: 250 to 1000 nM

CO[C@@]1(COP(=O)(O)OP(=O)(O)OP(=O)(O)O)C[C@@H](O)[C@H](n2ccc(=O)[nH]c2=O)O1 [Compound 9d]
IC50 [3]: 1000 to 10000 nM

CO[C@]1(COP(=O)(N[C@H](C)C(=O)OC(C)C)Oc2ccccc2)O[C@@H](n2ccc(=O)[nH]c2=O)[C@H](N=[N+]=[N-])[C@@H]1O (stereo partly drawn) [Compound 123]
EC50 [1]: > 10 µM
CC50 at 72 h [2]: > 50 µM

CO[C@]1(CO)O[C@@H](n2ccc(=O)[nH]c2=O)[C@H](O)[C@@H]1O [Compound 2a]
EC50 [1]: > 10 µM
CC50 at 72 h [2]: > 50 µM

CO[C@]1(COP(=O)(O)OP(=O)(O)OP(=O)(O)O)O[C@@H](n2ccc(N)nc2=O)[C@H](O)[C@@H]1O [Compound 9f]
IC50 [3]: < 250 nM
IC50 [4]: 250 to 1000 nM

CO[C@]1(CO)O[C@@H](n2cnc3c(=O)[nH]c(N)nc32)[C@@H](N=[N+]=[N-])[C@@H]1O [Compound 20]
EC50 [1]: > 10 µM
CC50 at 72 h [2]: > 50 µM

CO[C@H]1[C@H](n2ccc(=O)[nH]c2=O)O[C@@](COP(=O)(O)OP(=O)(O)OP(=O)(O)O)(OC)[C@H]1O [Compound 224]
IC50 [3]: > 10000 nM

CO[C@]1(CO)O[C@@H](n2ccc(N)nc2=O)[C@H](O)[C@@H]1O [Compound 5a2]
EC50 [1]: > 10 µM
CC50 at 72 h [2]: > 50 µM

CO[C@]1(COP(=O)(O)OP(=O)(O)OP(=O)(O)O)O[C@@H](n2cnc3c(=O)[nH]c(N)nc32)[C@@H](N=[N+]=[N-])[C@@H]1O [Compound 220]
IC50 [3]: 1000 to 10000 nM

CO[C@]1(COP(=O)(O)O)O[C@@H](n2ccc(=O)[nH]c2=O)[C@H](O)[C@@H]1O [Compound 18a]
IC50 [3]: > 10000 nM

CO[C@H]1[C@H](n2ccc(=O)[nH]c2=O)O[C@@](CO)(OC)[C@H]1O [Compound 24]
EC50 [1]: > 10 µM
CC50 at 72 h [2]: > 50 µM

CCO[C@]1(CO)O[C@@H](n2ccc(=O)[nH]c2=O)[C@H](O)[C@@H]1O [Compound 6a]
EC50 [1]: > 10 µM
CC50 at 72 h [2]: > 50 µM

CO[C@]1(COP(=O)(O)OP(=O)(O)OP(=O)(O)O)O[C@@H](n2ccc(=O)[nH]c2=O)[C@H](N=[N+]=[N-])[C@@H]1O [Compound 223]
IC50 [3]: > 10000 nM
